Assay results taken from the supplement of paper PMC10307832.

What was measured:
Assay in all cases: relative viability (nuclei count vs DMSO), 5 days (fraction); higher = more cells survive
[1] = compound: O=c1ncccn1[C@@H]1O[C@H](CO)[C@@H](O)[C@H]1O [Zebularine] + COc1cccc2cc(-c3nc([C@H]4CC[C@H](C(=O)O)CC4)n4ncnc(N)c34)[nH]c12 [OSI-027] (partner 0.5 µM)
In short: (§1)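 Lung cancer cell lines in 1536-well plates got either a single drug or a fixed anchor-drug dose together with five library-drug doses (not always all listed) in √10 steps, by pin tool, on the day after seeding. Nuclei were counted after 5 days, and relative viability is the treated-to-vehicle ratio of nuclei counts. Values are medians of duplicate plates.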

[2] = compound: O=c1ncccn1[C@@H]1O[C@H](CO)[C@@H](O)[C@H]1O [Zebularine] + C[C@@H](Oc1cc(-c2cnn(C3CCNCC3)c2)cnc1N)c1c(Cl)ccc(F)c1Cl [Crizotinib] (partner 1 µM)
In short: as §1

[3] = compound: O=c1ncccn1[C@@H]1O[C@H](CO)[C@@H](O)[C@H]1O [Zebularine] + CC(=O)Nc1cccc(-n2c(=O)n(C3CC3)c(=O)c3c(Nc4ccc(I)cc4F)n(C)c(=O)c(C)c32)c1 [Trametinib] (partner 0.02 µM)
In short: as §1

[4] = compound: CC(C)CCN1c2nc(Nc3cc(F)c(O)c(F)c3)ncc2N(C)C(=O)C1C [BI-D1870] + O=C(c1cc(Cc2n[nH]c(=O)c3ccccc23)ccc1F)N1CCN(C(=O)C2CC2)CC1 [Olaparib] (partner 8 µM)
In short: as §1

Cell Line	relative viability ([1]; first compound 1 µM)	relative viability ([1]; first compound 3.162 µM)	relative viability ([1]; first compound 10 µM)	relative viability ([1]; first compound 31.62 µM)	relative viability ([1]; first compound 100 µM)	relative viability ([2]; first compound 1 µM)	relative viability ([2]; first compound 3.162 µM)	relative viability ([2]; first compound 31.62 µM)	relative viability ([2]; first compound 100 µM)	relative viability ([3]; first compound 1 µM)	relative viability ([3]; first compound 3.162 µM)	relative viability ([3]; first compound 10 µM)	relative viability ([3]; first compound 31.62 µM)	relative viability ([3]; first compound 100 µM)	relative viability ([4]; first compound 0.04 µM)	relative viability ([4]; first compound 0.1265 µM)	relative viability ([4]; first compound 0.4 µM)	relative viability ([4]; first compound 1.265 µM)	relative viability ([4]; first compound 4 µM)	relative viability ([2]; first compound 10 µM)
RERF-LC-KJ	0.715	0.523	0.51	0.548	0.575	1.01	0.826	0.885	0.977	1.02	0.89	0.719	0.87	0.916	1.09	0.831	0.936	0.914	0.306	–
A-427	0.51	0.403	0.347	0.344	0.268	1.21	0.795	0.345	0.188	0.763	0.746	0.698	0.448	0.267	0.71	0.647	0.659	0.705	0.551	0.624
NCI-H441	0.817	0.595	0.401	0.25	0.234	0.874	0.657	0.173	0.219	0.485	0.416	0.316	0.315	0.213	0.682	0.549	0.569	0.537	0.492	0.289
NCI-H1703	–	–	–	–	–	0.623	0.852	0.67	0.913	–	–	–	–	–	–	0.439	0.328	0.487	0.315	–
NCI-H1792	0.67	0.668	0.318	0.384	0.366	1.06	0.876	0.386	0.339	0.472	0.351	0.187	0.176	0.182	0.434	0.334	0.369	0.812	0.315	0.381
Calu-6	–	–	–	–	–	0.902	0.77	0.447	0.211	–	–	–	–	–	0.658	0.534	0.479	0.359	0.254	0.556
SK-LU-1	0.369	0.359	0.31	0.291	0.302	1.02	0.843	0.79	0.583	0.52	0.485	0.412	0.446	0.371	0.497	0.377	0.41	0.427	0.35	0.531
PC-3 [JPC-3]	0.832	0.701	0.554	0.663	0.656	1.09	0.943	0.699	0.476	0.779	0.696	0.622	0.71	0.539	1.25	1.08	1.08	0.966	0.831	0.64
EMC-BAC-2	0.406	0.366	0.341	0.387	0.368	0.795	0.67	0.777	0.824	0.97	0.9	0.766	0.901	0.941	0.513	0.451	0.453	0.512	0.455	0.689
